Where two headings read alike, the source gives them in different places.
Legend:
HCVcc [1] = assay: microbe, parasite or virus in culture; conditions: for EC50: Hepatitis C virus
From the text: (§1) The infectious cell culture system for HCV (HCVcc) is based on a unique full length strain of genotype 2a derived from a patient with fulminant hepatitis (JFH-1). HCVcc allows the complete virus life cycle to be studied in cell culture. A chimeric strain of JFH-1, termed Jc1JFH, is capable of more robust growth in tissue culture and can be engineered to encode a reporter gene. The activity of compounds such as nilotinib against HCVcc can be investigated using a Jc1JFH reporter virus encoding luciferase (Table 1). Naïve Huh-7.5 cells are treated with serially diluted compounds in DMSO for 2 h prior to infection with HCVcc. […] Both EC50 and CC50 values are normalized to cells treated with DMSO alone.

in vitro = conditions: human
From the text: as §1

HCVrep = assay: HCV replicon (HCVrep) luciferase assay, JFH-1-based replicon cell line; set-up: species or system Hepatitis C virus (HCV)
From the text: (§2) HCVrep comprises a stable cell line harboring a sub-genomic replicon encoding a selectable marker (e.g., neomycin phosphotransferase), a reporter gene (e.g., luciferase) and the minimal HCV replicase proteins, NS3 to NS5B. Since the subgenomic replicon is non-infectious, the HCVrep system is used to study viral RNA replication independently of other stages of the life cycle, including virus entry/assembly/release. […] To determine the effects of compounds such as nilotinib on HCV RNA replication, a stable JFH-1-based replicon cell line encoding luciferase was established.

[2] = Cytotoxicity in HCVrep cell line
From the text: as §1, §2

HCVcc [3] = assay: Time of addition experiment with HCVcc (FIG. 1); type: cell-based, Hepatitis C virus (HCV); conditions: treatment 1 (compound during first 4 h of infection) vs treatment 2 (added 4 h post-infection); luciferase at 72 h
Description: FIG. 1. The effect of agents added before or after entry of HCV into cells. The presence of compound during both binding and post-binding are indicated by black bars; white bars indicate compounds present only at post-binding. DMSO, dimethyl sulfoxide; 5Ainh, HCV NS5A inhibitor (50×EC50); nilotinib (50×EC50); α-CD81, anti-CD81 antibody (1 μg/mL); α-IgG, iso-type control antibody (1 μg/mL).
To further explore the MOA of compounds such as nilotinib, a time of addition experiment is performed to determine whether the compound acted at an early (i.e., entry) or late (i.e., assembly/release) stage of the virus life cycle. Naive Huh7.5 cells are infected for 4 h with HCVcc in either the presence (treatment 1) or absence (treatment 2) of compound. At 4 h post-infection, compound is then added to the treatment 2 cells. At 72 h post infection, luciferase activity is determined. An inhibitor of viral entry (antibody targeting CD81) and an HCV replication inhibitor (5Ainh) are used as comparators.

HCV entry = type: cell-based, Hepatitis C virus (HCV); conditions: binding 1.5 h at 4° C., shift to 37° C., compound added at 20 min intervals up to 2 h; luciferase after 48 h
Description: The effect of agents added during entry of HCV into cells-. HCV kinetic entry assay in the presence of compounds.
In this assay, infection is synchronized by incubation of cells and virus together for 1.5 h at 4° C. to allow binding, but not subsequent entry steps. After synchronization, unbound virus is removed by washing, and cells are shifted to 37° C. to initiate post-binding events. Compounds are added either immediately prior to (time zero), or at 20 min intervals post-temperature shift for up to 2 h. Compounds are removed at 4 h post-addition and luciferase activity is measured after 48 h of infection. Controls are included, which are known to block various steps of the HCV entry process: heparin sulfate (virus binding), anti-CD81 antibody (early post-virus binding), concanamycin A (ConA; late post-virus binding), bafilomycin (Baf; late post-virus binding), gefitinib (Gef; late post-virus binding). Percent inhibition is determined relative to treatment with compounds during synchronized virus binding at 4° C. Representative data of percent inhibition versus time of addition (FIG. 2) is used to estimate half-maximal times (t1/2) to inhibit HCV entry.

[4] = Table 2, ratio of cytotoxicity to antiviral potency

Compound	EC50 (HCVcc [1]; Huh7.5) [µM]	CC50 (in vitro) [µM]	further results
Cc1nc(Nc2ncc(C(=O)Nc3c(C)cccc3Cl)s2)cc(N2CCN(CCO)CC2)n1 [Dasatinib, dasatinib]	1.48	18.7	CC50/EC50 (HCVcc [1]): 12.65
C#Cc1cccc(Nc2ncnc3cc(OCCOC)c(OCCOC)cc23)c1 [Erlotinib, erlotinib]	0.47	> 25	–
COc1cc2ncnc(Nc3ccc(F)c(Cl)c3)c2cc1OCCCN1CCOCC1 [Gefitinib, gefitinib]	–	10.6	–
Cc1ccc(NC(=O)c2ccc(CN3CCN(C)CC3)cc2)cc1Nc1nccc(-c2cccnc2)n1 [Imatinib, imatinib]	–	–	activity against the replicon (HCVrep; at the concentrations tested): did not show activity at the concentrations tested
Cc1ccc(NC(=O)c2ccc(CN3CCN(C)CC3)cc2)cc1Nc1nc(-c2cccnc2)cs1 [Masitinib, masitinib]	0.77	6.27	CC50/EC50 (HCVcc [1]; [4]): 14.58
Cc1cn(-c2cc(NC(=O)c3ccc(C)c(Nc4nccc(-c5cccnc5)n4)c3)cc(C(F)(F)F)c2)cn1 [Nilotinib, nilotinib]	0.04	8.77	CC50/EC50 (HCVcc [1]): 219.25; EC50 (HCVcc [1]; Huh7.5, read-out: HCVcc (EC50, μM)): 0.04 µM; CC50 (in vitro; HCVcc (CC50, μM), uninfected compound-treated cells, CellTiter Glo): 8.8 µM; EC50 (HCVrep; Hepatitis C virus, JFH-1-based replicon cell line, 72 h treatment): 4.2 µM; CC50 at 72 h [2]: 8.2 µM; potency when added during versus after HCV entry (HCVcc [3]): significantly more potent when added during the first 4 h of infection
Cc1ccc(C(=O)Nc2ccc(CN3CCN(C)CC3)c(C(F)(F)F)c2)cc1C#Cc1cnc2cccnn12 [Ponatinib, ponatinib]	0.05	–	–
CNC(=O)c1cc(Oc2ccc(NC(=O)Nc3ccc(Cl)c(C(F)(F)F)c3)c(F)c2)ccn1 [Regorafenib, regorafenib]	0.33	> 2.5	–
Cc1cn(-c2cc(NC(=O)c3ccc(C)c(Nc4nccc(-c5cnccn5)n4)c3)cc(C(F)(F)F)c2)cn1 [Rodotinib, radotinib]	0.04	> 2.5	–
CNC(=O)c1cc(Oc2ccc(NC(=O)Nc3ccc(Cl)c(C(F)(F)F)c3)cc2)ccn1 [Sorafenib, sorafenib]	0.47	5.75	CC50/EC50 (HCVcc [1]; [4]): 12.23
CCN(CC)CCNC(=O)c1c(C)[nH]c(/C=C2\C(=O)Nc3ccc(F)cc32)c1C [Sunitinib, sunitinib]	0.94	3.54	CC50/EC50 (HCVcc [1]; [4]): 3.77
heparin sulfate	–	–	inhibition kinetics of HCV entry versus time of addition (t1/2) (HCV entry): effectively blocks infection only when present during virus binding

From patent US20140127157A1, “ANTIVIRAL ACTIVITY OF TYROSINE KINASE INHIBITORS AGAINST HEPATITUS C VIRUS” (priority 2012, published 2014)
